Test results: patent publication US20230416225A1, “DIAMINOPYRIMIDINE CARBOXAMIDE INHIBITORS OF HPK1” (MERCK SHARP & DOHME LLC, priority 2020, published 2023)

Molecular target: T1, Human HPK1, catalytic domain (Homo sapiens, UniProt Q92918)
T1 construct: purchased Carna
T1 sequence (Q92918 1-346): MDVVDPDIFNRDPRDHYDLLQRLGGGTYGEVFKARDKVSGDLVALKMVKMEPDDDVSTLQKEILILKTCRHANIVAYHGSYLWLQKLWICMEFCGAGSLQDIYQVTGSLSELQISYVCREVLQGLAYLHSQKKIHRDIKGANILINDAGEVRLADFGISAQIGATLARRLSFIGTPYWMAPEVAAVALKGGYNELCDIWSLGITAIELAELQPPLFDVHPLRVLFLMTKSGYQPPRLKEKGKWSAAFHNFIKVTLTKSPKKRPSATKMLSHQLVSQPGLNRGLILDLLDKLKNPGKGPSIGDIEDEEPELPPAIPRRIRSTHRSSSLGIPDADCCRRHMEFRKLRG
Test: HPK1-SLP76 TR-FRET assay
Type: biochemical
Conditions: 75 pM HPK1, 10 uM ATP, 10 nM SLP76, 30 min compound pre-incubation

| IC50 [nM] | Compound |
| --- | --- |
| 4.74 | COc1cc2c(cc1Nc1ncc(C(N)=O)c(N[C@@H]3CCc4ccccc43)n1)CN(C)CC2 [Example 26-67, 4-{[(1R)-2,3-dihydro-1H-inden-1-yl]amino}-2-[(6-methoxy-2-methyl-1,2,3,4-tetrahydroisoquinolin-7-yl)amino]pyrimidine-5-carboxamide] |
| 19.4 | Cc1ccc(Nc2ncc(C(N)=O)c(Nc3cccc4c3CCNC4=O)n2)c(F)c1F [Example 25-39, 2-[(2,3-difluoro-4-methylphenyl)amino]-4-[(1-oxo-1,2,3,4-tetrahydroisoquinolin-5-yl)amino]pyrimidine-5-carboxamide] |
| 0.37 | CN1CCc2cc(Cl)c(Nc3ncc(C(N)=O)c(Nc4cccc5c4CCNC5=O)n3)cc2C1 [Example 7-36, 2-[(6-chloro-2-methyl-1,2,3,4-tetrahydroisoquinolin-7-yl)amino]-4-[(1-oxo-1,2,3,4-tetrahydroisoquinolin-5-yl)amino]pyrimidine-5-carboxamide] |
| 4.57 | COc1cc2c(cc1Nc1ncc(C(N)=O)c(Nc3ccccc3Br)n1)CN(C1CC(C#N)C1)CC2 (stereo not drawn) [Example 9-6, 4-((2-bromophenyl)amino)-2-((2-(3-cyanocyclobutyl)-6-methoxy-1,2,3,4-tetrahydroisoquinolin-7-yl)amino)pyrimidine-5-carboxamide] |
| 0.34 | C#C[C@H]1CC[C@@H](Nc2nc(Nc3cc4c(cc3OC)CCN(C)C4)ncc2C(N)=O)CC1 [Example 26-39, 4-[(cis-4-ethynylcyclohexyl)amino]-2-[(6-methoxy-2-methyl-1,2,3,4-tetrahydroisoquinolin-7-yl)amino]pyrimidine-5-carboxamide] |
| 1.42 | COc1cc2c(cc1Nc1ncc(C(N)=O)c(Nc3ccccc3Br)n1)CN(C1COC1)CC2 [Example 9-2, 4-[(2-bromophenyl)amino]-2-{[6-methoxy-2-(oxetan-3-yl)-1,2,3,4-tetrahydroisoquinolin-7-yl]amino}pyrimidine-5-carboxamide] |
| 6.59 | COc1cc2c(cc1Nc1ncc(C(N)=O)c(N[C@H](CO)c3ccccc3)n1)CN(C)CC2 [Example 26-43, 4-{[(1S)-2-hydroxy-1-phenylethyl]amino}-2-[(6-methoxy-2-methyl-1,2,3,4-tetrahydroisoquinolin-7-yl)amino]pyrimidine-5-carboxamide] |
| 0.13 | N#CC1(c2ccc(Nc3ncc(C(N)=O)c(Nc4cccc5c4CCNC5)n3)cc2)CC1 [Example 7-15, 2-{[4-(1-cyanocyclopropyl)phenyl]amino}-4-[(1,2,3,4-tetrahydroisoquinolin-5-yl)amino]pyrimidine-5-carboxamide] |
| 215 | COc1cc2c(cc1Nc1ncc(C(N)=O)c(Nc3ccccc3CC(C)c3ccccc3)n1)CN(C)CC2 (stereo not drawn) [Example 13-7, 2-[(6-methoxy-2-methyl-1,2,3,4-tetrahydroisoquinolin-7-yl)amino]-4-{[2-(2-phenylpropyl)phenyl]amino}pyrimidine-5-carboxamide] |
| 6.24 | CC(C)n1cc(Nc2ncc(C(N)=O)c(Nc3cccc4c3CCNC4=O)n2)cn1 [Example 7-50, 4-[(1-oxo-1,2,3,4-tetrahydroisoquinolin-5-yl)amino]-2-{[1-(propan-2-yl)-1H-pyrazol-4-yl]amino}pyrimidine-5-carboxamide] |
| 384 | Cc1cccc(F)c1Nc1nc(Nc2cnn(CC3CC3)c2)ncc1C(N)=O [Example 4-22, 2-{[1-(cyclopropylmethyl)-1H-pyrazol-4-yl]amino}-4-[(2-fluoro-6-methylphenyl)amino] pyrimidine-5-carboxamide] |
| 598 | COc1cc2c(cc1Nc1ncc(C(N)=O)c(Nc3ccccc3Br)n1)CN(C(=O)C(C)C)CC2 [Example 12-3, 4-[(2-bromophenyl)amino]-2-{[6-methoxy-2-(2-methylpropanoyl)-1,2,3,4-tetrahydroisoquinolin-7-yl]amino}pyrimidine-5-carboxamide] |
| 13.9 | COc1cc(C2CNC2)ccc1Nc1ncc(C(N)=O)c(Nc2ccccc2Br)n1 [Example 8-4, 2-((4-(azetidin-3-yl)-2-methoxyphenyl)amino)-4-((2-bromophenyl)amino)pyrimidine-5-carboxamide] |
| 1.62 | COc1cc2c(cc1Nc1ncc(C(N)=O)c(Nc3ccccc3C(F)(F)F)n1)C(C1CC1)N(C)CC2 (single isomer, unassigned) [Example 20-1, 2-((1-cyclopropyl-6-methoxy-2-methyl-1,2,3,4-tetrahydroisoquinolin-7-yl)amino)-4-((2-(trifluoromethyl)phenyl)amino)pyrimidine-5-carboxamide] |
| 3.57 | COc1nn(C)cc1Nc1ncc(C(N)=O)c(Nc2cccc3c2CCNC3=O)n1 [Example 7-47, 2-[(3-methoxy-1-methyl-1H-pyrazol-4-yl)amino]-4-[(1-oxo-1,2,3,4-tetrahydroisoquinolin-5-yl)amino]pyrimidine-5-carboxamide] |
| 91.5 | CS(=O)(=O)c1ccc(Nc2ncc(C(N)=O)c(Nc3c(F)cccc3CO)n2)cc1 [Example 7-65, 4-{[2-fluoro-6-(hydroxymethyl)phenyl]amino}-2-{[4-(methylsulfonyl)phenyl]amino}py-rimidine-5-carboxamide] |
| 0.51 | COc1cc2c(cc1Nc1ncc(C(N)=O)c(Nc3cccc4c3CCN(CC(C)(C)O)C4)n1)CN(C)CC2 [Example 7-28, 4-{[2-(2-hydroxy-2-methylpropyl)-1,2,3,4-tetrahydroisoquinolin-5-yl]amino}-2-[(6-methoxy-2-methyl-1,2,3,4-tetrahydroisoquinolin-7-yl)amino]pyrimidine-5-carboxamide] |
| 2.71 | COc1cc2c(cc1Nc1ncc(C(N)=O)c(NC3CCc4c(F)ccc(F)c43)n1)CN(C)CC2 (stereo not drawn) [Example 26-70, 4-[(4,7-difluoro-2,3-dihydro-1H-inden-1-yl)amino]-2-[(6-methoxy-2-methyl-1,2,3,4-tetrahydroisoquinolin-7-yl)amino]pyrimidine-5-carboxamide] |
| 0.4 | COc1cc2c(cc1Nc1ncc(C(N)=O)c(Nc3ccc(C)cc3)n1)CN(C)CC2 [Example 7-24, 2-[(6-methoxy-2-methyl-1,2,3,4-tetrahydroisoquinolin-7-yl)amino]-4-[(4-methylphenyl)amino]pyrimidine-5-carboxamide] |
| 34.2 | COc1cc(N2CCNCC2)ccc1Nc1ncc(C(N)=O)c(Nc2ccccc2Br)n1 [Example 7-10, 4-[(2-bromophenyl)amino]-2-{[2-methoxy-4-(piperazin-1-yl)phenyl]amino}pyrimidine-5-carboxamide] |
| 0.22 | COc1cc2c(cc1Nc1ncc(C(N)=O)c(NC3CCc4ccc(F)cc43)n1)CN(C)CC2 (stereo not drawn) [Example 26-25, 4-[(6-fluoro-2,3-dihydro-1H-inden-1-yl)amino]-2-[(6-methoxy-2-methyl-1,2,3,4-tetrahydroisoquinolin-7-yl)amino]pyrimidine-5-carboxamide] |
| 0.88 | COC(=O)c1ccccc1Nc1nc(Nc2cc3c(cc2OC)CCN(C)C3)ncc1C(N)=O [Example 7-94, methyl 2-({5-carbamoyl-2-[(6-methoxy-2-methyl-1,2,3,4-tetrahydroisoquinolin-7-yl)amino]pyrimidin-4-yl}amino)benzoate] |
| 1.23 | COc1cc2c(cc1Nc1ncc(C(N)=O)c(NCC3CCNCC3)n1)CN(C)CC2 [Example 26-72, 2-[(6-methoxy-2-methyl-1,2,3,4-tetrahydroisoquinolin-7-yl)amino]-4-{[(piperidin-4-yl)methyl]amino}pyrimidine-5-carboxamide] |
| 0.56 | COc1cc2c(cc1Nc1ncc(C(N)=O)c(Nc3cccc(CNC(=O)C4(F)CC4)c3)n1)CN(C)CC2 [Example 3-1, 4~[(3~{[(1-fluorocyclo-propane-1-carbonyl)amino]-methyl}phenyl)amino]-2-[(6-methoxy-2-methyl-1,2,3,4-tetrahydroiso-quinolin-7-yl)amino]-pyrimidine-5-carboxamide] |
| 1.06 | COc1cc2c(cc1Nc1ncc(C(N)=O)c(NC3CC[C@H]4NCCC[C@@H]34)n1)CN(C)CC2 (stereo partly drawn) [Example 26-10, 2-[(6-methoxy-2-methyl-1,2,3,4-tetrahydroisoquinolin-7-yl)amino]-4-{[(4aR,7aR)-octahydro-1H-cyclopenta[b]pyridin-5-yl]amino}pyrimidine-5-carboxamide] |
| 78.8 | Cn1cc(Nc2ncc(C(N)=O)c(N[C@H](CO)C3CCCCC3)n2)cn1 [Example 26-49, 4-{[(1S)-1-cyclohexyl-2-hydroxyethyl]amino}-2-[(1-methyl-1H-pyrazol-4-yl)amino]pyrimidine-5-carboxamide] |
| 0.21 | COc1cc2c(cc1Nc1ncc(C(N)=O)c(Nc3c(Cl)ccc(C)c3F)n1)CN(C)CC2 [Example 4-20, 4-[(6-chloro-2-fluoro-3-methylphenyl)amino]-2-[(6-methoxy-2-methyl-1,2,3,4-tetrahydroisoquinolin-7-yl)amino]pyrimidine-5-carboxamide] |
| 0.15 | COc1cc2c(cc1Nc1ncc(C(N)=O)c(Nc3ccccc3I)n1)CN(C)CC2 [Example 7-70, 4-[(2-iodophenyl)amino]-2-[(6-methoxy-2-methyl-1,2,3,4-tetrahydroisoquinolin-7-yl)amino]pyrimidine-5-carboxamide] |
| 312 | COc1cc2c(cc1Nc1ncc(C(N)=O)c(Nc3ccccc3C[C@H](O)c3ccccc3)n1)CN(C)CC2 [Example 13-9, 4-({2-[(2S)-2-hydroxy-2-phenylethyl]phenyl}amino)-2-[(6-methoxy-2-methyl-1,2,3,4-tetrahydroisoquinolin-7-yl)amino]pyrimidine-5-carboxamide] |
| 2.75 | COc1cc2c(cc1Nc1ncc(C(N)=O)c(Nc3ccccc3-c3cncs3)n1)CN(C)CC2 [Example 14-1, 2-[(6-methoxy-2-methyl-1,2,3,4-tetrahydroisoquinolin-7-yl)amino]-4-{[2-(1,3-thiazol-5-yl)phenyl]amino}pyrimidine-5-carboxamide] |
